Blank lines part the entries; values can stand above or below the molecule they belong to.
Tests used:
HCN3 [1] = target: T1, HCN3 (Homo sapiens, UniProt Q9P1Z3); experiment: whole-cell patch clamp of HCN3 currents in transfected HeLa cells; assay type: cell-based; parameters: human HCN3 (WT) expressed in HeLa cells
T1 sequence (Q9P1Z3 1-774): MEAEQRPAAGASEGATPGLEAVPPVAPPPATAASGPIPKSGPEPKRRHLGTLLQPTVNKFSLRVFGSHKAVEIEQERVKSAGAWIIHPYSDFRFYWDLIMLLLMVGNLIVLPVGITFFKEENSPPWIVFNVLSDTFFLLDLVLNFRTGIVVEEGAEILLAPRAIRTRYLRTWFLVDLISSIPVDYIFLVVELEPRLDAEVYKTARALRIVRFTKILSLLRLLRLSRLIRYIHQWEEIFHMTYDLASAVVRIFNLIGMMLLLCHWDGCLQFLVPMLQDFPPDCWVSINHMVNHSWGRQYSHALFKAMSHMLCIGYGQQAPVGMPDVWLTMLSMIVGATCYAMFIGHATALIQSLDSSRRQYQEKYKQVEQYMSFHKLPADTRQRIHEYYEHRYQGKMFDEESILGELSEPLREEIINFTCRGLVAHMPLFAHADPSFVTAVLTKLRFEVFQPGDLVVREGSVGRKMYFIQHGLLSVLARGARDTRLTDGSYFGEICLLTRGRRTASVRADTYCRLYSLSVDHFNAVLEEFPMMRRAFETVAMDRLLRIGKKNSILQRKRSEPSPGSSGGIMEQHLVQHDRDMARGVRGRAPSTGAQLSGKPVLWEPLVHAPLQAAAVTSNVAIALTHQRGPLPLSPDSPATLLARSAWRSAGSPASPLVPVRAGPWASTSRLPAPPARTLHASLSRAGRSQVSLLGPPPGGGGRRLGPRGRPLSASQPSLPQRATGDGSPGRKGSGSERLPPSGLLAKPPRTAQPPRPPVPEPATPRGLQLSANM

HCN3 [2] = target: T1, HCN3; experiment: cryo-EM structure of the apo channel ([…] Å) with CHS density; IC50 by whole-cell patch clamp; assay type: cell-based
[3] = target: the molecule itself; experiment: cryo-EM structure; single-particle cryo-EM of MBP-HCN3 in 0.1% digitonin, 300 mM KCl, 2 mM DTT, 20 mM Tris pH 8.0; ligand-free sample and sample with 5 mM cAMP; final refinement in C4 symmetry

Molecule: CC(C)CCC[C@@H](C)[C@H]1CC[C@H]2[C@@H]3CC=C4C[C@@H](O)CC[C@]4(C)[C@H]3CC[C@]12C [cholesterol]
IC50 (HCN3 [1]): 480 µM

IC50 (HCN3 [2]): 1450 µM
Molecule: CC(C)CCC[C@@H](C)[C@H]1CC[C@H]2[C@@H]3CC=C4C[C@@H](OC(=O)CCC(=O)O)CC[C@]4(C)[C@H]3CC[C@]12C [cholesteryl hemisuccinate]

B1: full-length wild-type human HCN3 with its N terminus fused to maltose-binding protein (MBP) (natural protein, UniProt Q9P1Z3 1-774, looked up)
chain: MEAEQRPAAGASEGATPGLEAVPPVAPPPATAASGPIPKSGPEPKRRHLGTLLQPTVNKFSLRVFGSHKAVEIEQERVKSAGAWIIHPYSDFRFYWDLIMLLLMVGNLIVLPVGITFFKEENSPPWIVFNVLSDTFFLLDLVLNFRTGIVVEEGAEILLAPRAIRTRYLRTWFLVDLISSIPVDYIFLVVELEPRLDAEVYKTARALRIVRFTKILSLLRLLRLSRLIRYIHQWEEIFHMTYDLASAVVRIFNLIGMMLLLCHWDGCLQFLVPMLQDFPPDCWVSINHMVNHSWGRQYSHALFKAMSHMLCIGYGQQAPVGMPDVWLTMLSMIVGATCYAMFIGHATALIQSLDSSRRQYQEKYKQVEQYMSFHKLPADTRQRIHEYYEHRYQGKMFDEESILGELSEPLREEIINFTCRGLVAHMPLFAHADPSFVTAVLTKLRFEVFQPGDLVVREGSVGRKMYFIQHGLLSVLARGARDTRLTDGSYFGEICLLTRGRRTASVRADTYCRLYSLSVDHFNAVLEEFPMMRRAFETVAMDRLLRIGKKNSILQRKRSEPSPGSSGGIMEQHLVQHDRDMARGVRGRAPSTGAQLSGKPVLWEPLVHAPLQAAAVTSNVAIALTHQRGPLPLSPDSPATLLARSAWRSAGSPASPLVPVRAGPWASTSRLPAPPARTLHASLSRAGRSQVSLLGPPPGGGGRRLGPRGRPLSASQPSLPQRATGDGSPGRKGSGSERLPPSGLLAKPPRTAQPPRPPVPEPATPRGLQLSANM
notes: the tag was not cleaved for the structures; Modelled residues: 50-151, 156-191, 210-476, 484-543 (apo); also 477-483 with cAMP; also called HCN3 channel; apo-HCN3; source: HEK293S cells, BacMam transduction, purified (MBP beads, Superose 6 SEC, digitonin); not shown: MBP, N-terminal, kept
stoichiometry N [3]: 4

From publication PMC11126801 (The Journal of Biological Chemistry, 2024)
